Experimental data published in US9957472B2, “Deterministic high-density single-cell trap array” (Georgia Tech Research Corporation, priority 2011, dated 2018).

What was measured:
Jurkat cells = assay: Calcium response of trapped Fluo-3-loaded Jurkat cells to ionomycin on chip (cell trap arrays with concentration gradient generator); assay type: cell-based, human
Description: Jurkat E6-1 human acute T cell lymphoma cells (ATCC) were cultured in RPMI 1640 medium with L-glutamine (Sigma-Aldrich, St. Louis, Mo.) with 10 mM HEPES, 1 mM sodium pyruvate, 1×MEM nonessential amino acids, and 100 units mL^−1 penicillin streptomycin (Cellgro), supplemented with 10% certified heat inactivated fetal bovine serum (Sigma-Aldrich, St. Louis, Mo.), at 37° C. in a humidified 5% CO2 incubator. For nuclei visualisation, Jurkat cells were incubated with Hoechst 33258, at a final concentration of 1 μg mL^−1, at 37° C. for 20 minutes.
Cells were checked for viability using Live/Dead stain (Invitrogen) following the manufacturer's protocol. For high resolution microscopy, 10^6 cells were fixed in a 5% formalin solution (Sigma-Aldrich, St. Louis, Mo.) for 15 minutes at 37° C., washed three times with cold PBS, and resuspended in 100 μL of ice cold 90% methanol. Immunostaining was performed on fixed cells using […] for DNA staining, mouse α-calnexin (Abcam) for ER staining, and rabbit α-profilin-1 (Cell Signaling), as a cytoplasmic localized protein. Incubation with the primary antibody for one hour at room temperature was followed by three wash steps with a solution of 2% BSA in PBS and incubation for 40 minutes at room temperature with the following secondary antibodies: Alexa 488 α-mouse (Invitrogen) and goat α-rabbit TRITC (Southern Biotech). To monitor calcium signaling, Jurkat cells were incubated with 5 μM Fluo-3 (Invitrogen) for 20 minutes at 37° C., washed with cold PBS, and loaded into the cell traps. Trapped cells were stimulated with ionomycin (Sigma, St. Louis, Mo.) at various concentrations to release intracellular calcium.
Before each experiment, the microfluidic devices were primed using a solution of 2% BSA in PBS to remove any air bubbles and limit undesirable cell adhesion to the wall. A pressure difference of 3.5 kPa (5.5 kPa for devices with upstream serial-dilution gradient generator) created by gravity was used to drive the flow, resulting to an average flow rate of ˜2 μL h^−1. Cell loading was obtained by pipetting 2 μL of 5×10^6 cell mL^−1 of cell suspension on the chip positioned on the microscope stage. Further experiments (staining, stimulation) were performed by adding 5 μL of 4× chemicals in the inlet hole and flowing over the trapped cells for the desired time. All experiments were performed in a microcontrolled environment (temperature set at 37° C. in a humidified 5% CO2 environment).
A […] (SIMCA-P, Umetrics) was run on a known dataset of objects to determine the two most informative predictors of the number of cells contained in an object. The perimeter and the extent (ratio of pixels in the object to pixels in the total bounding box) were found as being the most informative. To quantify single cell trapping efficiency, the distribution of objects in the perimeter-extent space was fitted to a 2-component Gaussian mixture model for each chamber trap array. The maximum likelihood parameters from each of the two subpopulations were retrieved and represented respectively the percentage of single cell objects and multiple cell objects. Single cell response intensities were obtained by tracking the mean intensity of each object considered as a single cell in the overlaid mask and image over time.
The present trap arrays can also be easily integrated with upstream microfluidic components capable of multiplexing experiments, where cells can be exposed to different extracellular conditions on a single chip. […] After loading cells containing Fluo-3, more than 1,000 individual cells were monitored for an hour after the addition of different concentrations of the calcium ionophore ionomycin. Ionomycin increases intracellular calcium via mobilization of both extracellular and intracellular calcium stores in T cells. As expected, increased concentration of stimulus lead to increased average intracellular calcium concentration (FIG. 17). […]

[1] = tested on: human embryonic kidney 293 cells; settings: clonal HEK 293 cells challenged with caffeine; cited from earlier work

Compound	% Responding Cells (Jurkat cells; ionomycin 0.08 μM, chamber 8, 250 tracked cells) [%]	% Responding Cells (Jurkat cells; ionomycin 0.2 μM, chamber 7, 306 tracked cells) [%]	% Responding Cells (Jurkat cells; ionomycin 0.5 μM, chamber 6, 273 tracked cells) [%]	% Responding Cells (Jurkat cells; ionomycin 0.8 μM, chamber 5, 287 tracked cells) [%]	% Responding Cells (Jurkat cells; ionomycin 1.4 μM, chamber 4, 322 tracked cells) [%]	% Responding Cells (Jurkat cells; ionomycin 1.8 μM, chamber 3, 263 tracked cells) [%]	% Responding Cells (Jurkat cells; ionomycin 2.2 μM, chamber 2, 328 tracked cells) [%]	% Responding Cells (Jurkat cells; ionomycin 2.5 μM, chamber 1, 342 tracked cells) [%]	cells responding with an elevation in intracellular calcium [1] [%]
C[C@H](CCC(=O)O)C[C@H](C)C[C@H](C)C(=O)/C=C(\O)[C@H](C)C[C@H](C)C/C=C/[C@@H](C)[C@@H](O)[C@@H](C)[C@@H](O)C[C@@H]1CC[C@@](C)([C@H]2CC[C@@](C)([C@@H](C)O)O2)O1 [ionomycin]	4	17	19.1	25.4	31.1	31.9	33.2	44	–
Cn1c(=O)c2c(ncn2C)n(C)c1=O [caffeine]	–	–	–	–	–	–	–	–	40
